Broadly, the IC50 is the concentration at which inhibition is half-maximal. For orientation: solubility means the dissolved amount per volume that the medium holds. Low readings indicate little dissolved substance, high ones much dissolved substance. For orientation: MIC means the least concentration at which growth counts as inhibited. By Ki is commonly meant the equilibrium dissociation constant of an inhibitor or competing ligand from its target. Low readings indicate a stronger hold on the target, high ones a looser hold on the target. What is called Km is the concentration of substrate that gives half-maximal velocity.

The source of these data is paper PMC6627197, “Development of a High Throughput Screen for the Identification of Inhibitors of Peptidoglycan O-Acetyltransferases, New Potential Antibacterial Targets” (Antibiotics, 2019).

In brackets after ≈: the same amount, converted by molar mass. Entries after “also recorded” stand apart in the source; their conditions may differ. Read-outs that look alike come from different tables or passages of the source. Some results are limits rather than exact numbers.

In data set [1] the target is T1, SaOatA (Staphylococcus aureus, UniProt Q2FV54).
T1 sequence (Q2FV54 435-603): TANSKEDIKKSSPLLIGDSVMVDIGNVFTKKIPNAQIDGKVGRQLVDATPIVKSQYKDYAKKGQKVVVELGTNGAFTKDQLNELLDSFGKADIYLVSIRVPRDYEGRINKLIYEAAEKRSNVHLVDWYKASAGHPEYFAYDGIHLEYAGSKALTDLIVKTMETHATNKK
Nature of the data set: biochemical. Particulars: for activity at 10 µM: pH 7, read-out: SaOatA 4MU-Ac 1° Screen (% RA).

The target of data set [2] is T2, NgPatB (Neisseria gonorrhoeae, UniProt Q5F966). The experiment in a line: NgPatB esterase inhibition, fluorometric assay with 4MU-Ac as substrate (HTS, dose response, Ki). Format: biochemical. Particulars: for activity at 10 µM: pH 7, read-out: NgPatB 4MU-Ac 1° Screen (% RA); for Mode of inhibition of NgPatB: 4MU-Ac as substrate, double reciprocal plot.
Protocol: Determinations of Ki and mode of inhibition of NgPatBΔ100 were conducted using 4MU-Ac as a substrate. […] Initial velocities of substrate hydrolysis were obtained by fluorescence emission at 420 nm (390 nm excitation).
A large scale HTS was conducted at the SPARC BioCentre Drug Discovery Facility (The Hospital for Sick Children, Toronto, Canada) to identify additional inhibitors of PatBΔ100 acetylesterase activity. A total of 68,928 compounds were tested in singlicate, including 14,400 from the Maybridge HitFinder Collection, 50,000 from the ChemBridge DIVERset Collection, and 4,480 compounds representing plates 1–15 of the GlycoNET ChemBridge Collection maintained at the facility. The 4MU-Ac served as the substrate in the 384-well microtiter plate (NUNC 262260) fluorescent assay described above. The assay was optimized for use with this facility by altering enzyme and substrate concentrations, in addition to incubation times and reaction volume. As for the pilot screen, a Z’ for the assay was determined using Equation (1). […] This was followed by dispensing final concentrations of 20 µM compounds from the Maybridge HitFinder and ChemBridge DIVERset Collections or 10 µM compounds from the GlycoNET ChemBridge Collection using an Echo® 550 acoustic dispenser (Labcyte).
Data set [3] addresses T1, SaOatA. Particulars: cited from earlier work.
The target of data set [4] is T1, SaOatA. The experiment in a line: SaOatA esterase inhibition, chromogenic assay with pNP-Ac as substrate. The format is biochemical. The protocol: (§1) With fluorometric assays, fluorescence quenching by compounds in the libraries could lead to their false identification as inhibitors. Thus, to confirm their inhibitory activity, we also tested esculin, esculetin, and scopoletin as inhibitors of PatBΔ69 and SaOatAΔ435 esterase activity using the chromogenic pNP-Ac as substrate. […] .
(§2) Hits which were seen to affect NgPatBΔ100 esterase activity in a dose dependent manner were also tested as inhibitors of the enzyme (0.75 µM, final concentration) using 2 mM pNP-Ac as substrate to identify false positives, due to fluorescence quenching under similar assay conditions. Similarly, hits which were seen to affect SaOatAΔ445 esterase activity in a dose dependent manner were also tested as inhibitors of the enzyme at 1.5 µM (final concentration) using 1.1 mM pNP-Ac.

The target of data set [5] is T2, NgPatB. The experiment in a line: NgPatB esterase inhibition, chromogenic assay with pNP-Ac as substrate. Format: biochemical. As to the method: as §1, §2
The nature of data set [6]: Solubility limit in growth assays.
For a further data set, the system named is E. coli BL21. The experiment in a line: Microtiter plate growth / MIC assay, E. coli (negative control organism). Particulars: for Effect on growth of E. coli: within solubility limits.
The test system of another data set is N. gonorrhoeae FA1090. Nature of the data set: Microtiter plate growth / MIC assay, N. gonorrhoeae.
The test system of a further data set is S. aureus ATCC 6538. The experiment in a line: Microtiter plate growth / MIC assay, S. aureus. Particulars: Staphylococcus aureus, ATCC6538, read-out: Growth of S. aureus ATCC 6538, % of control growth level reached.
Data set [7] deals with T2, NgPatB. Format: biochemical. Particulars: 3 µM enzyme, pH 7.0.
For data set [8], the target named is SaOatA (Staphylococcus aureus, UniProt Q2FV54). The format is biochemical. Particulars: variant SaOatA445 (SaOatAΔ445), 5 µM enzyme, pH 6.5.
The target of data set [9] is T1, SaOatA. To be noted: 10 µM.
Where [10] appears, read: read-out: SaOatA 4MU-Ac IC50, 4MU-Ac as substrate, values marked 2 in Table 1.
Setting [11] is: listed as benzothiazolyl-pyrazolo-pyridine.

T2 sequence (Q5F966 entry or part of it): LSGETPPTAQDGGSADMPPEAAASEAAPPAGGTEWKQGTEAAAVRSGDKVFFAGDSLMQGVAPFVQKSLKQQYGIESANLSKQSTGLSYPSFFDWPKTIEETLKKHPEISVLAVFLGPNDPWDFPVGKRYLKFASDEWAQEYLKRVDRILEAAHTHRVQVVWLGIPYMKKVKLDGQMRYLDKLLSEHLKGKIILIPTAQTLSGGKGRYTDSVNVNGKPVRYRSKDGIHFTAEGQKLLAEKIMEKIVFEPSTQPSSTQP

Regarding `COc1cc2oc(=O)ccc2cc1O` [Isoscopoletin], the activity at 10 µM at SaOatA [1] was 115%; at NgPatB [2], 53.5%.
As for `COc1cc2ccc(=O)oc2cc1O` [Scopoletin], the IC50 at SaOatA [3] (setting [10]) is 103 ± 1.1 µM; on SaOatA [4] it was 1170 ± 100 µM; against NgPatB [5] it was 792 ± 7 µM; on NgPatB [2] it was 47.9 ± 4 µM. For the same compound, the activity at 10 µM amounted to 21.4% on SaOatA [1] and 30% on NgPatB [2]. In addition, the concentration in solution in [6] (solubility) was 480 µg/mL (≈ 2500 µM).
For the compound `O=c1ccc2cc(O)c(O)cc2o1` [Esculetin], the minimum inhibitory concentration (MIC) with E. coli BL21 (Escherichia coli, BL21, read-out: MIC, E. coli BL21) is 512 µg/mL (≈ 2870 µM). Further, the IC50 was 106 ± 1.2 µM at SaOatA [3] (setting [10]), 600 ± 140 µM at SaOatA [4], 853 ± 79 µM against NgPatB [5] and 53.1 ± 1 µM on NgPatB [2]. Further, the activity at 10 µM on SaOatA [1] worked out at 71%; at NgPatB [2], 55.7%. The activity at 512 µg/mL in the data set with N. gonorrhoeae FA1090 (Neisseria gonorrhoeae, FA1090, read-out: Growth of N. gonorrhoeae FA1090, % of control growth level reached) came to 25%; with S. aureus ATCC 6538, 10%. On NgPatB [2], this compound gave a Ki of 86.7 ± 4.7 µM. Also, the “Mode of inhibition of NgPatB” value on NgPatB [2] is recorded as “competitive inhibitor”.
For the compound `Cc1cc(=O)oc2cc(O)ccc12` [Hymercrome, 7-hydroxy-4-methyl-coumarin, reference compound], the IC50 against SaOatA [4] is more than 3000 µM; against SaOatA [1] it was more than 3000 µM; at NgPatB [5], more than 3000 µM; against NgPatB [2] it was 615 ± 10 µM. Further, the activity at 10 µM at SaOatA [1] amounted to 67.8%; at NgPatB [2], 42.9%.
`CC(=O)Oc1ccc([N+](=O)[O-])cc1` [pNP-Ac, p-nitrophenyl acetate]: the Km at NgPatB [7] (variant NgPatB69 (NgPatBΔ69)) was 1770 µM; at NgPatB [7] (variant NgPatB100 (NgPatBΔ100)), 2060 µM; on SaOatA [8], 1140 µM. Further, the kcat worked out at 0.14 sec‐1 on NgPatB [7] (variant NgPatB69 (NgPatBΔ69)), 0.44 sec‐1 on NgPatB [7] (variant NgPatB100 (NgPatBΔ100)) and 0.047 sec‐1 on SaOatA [8].
With `O=c1ccc2ccc(O)cc2o1` [Umbelliferone, 7-hydroxycoumarin], the half-inhibitory concentration (IC50) at SaOatA [3] (setting [10]) is 98.5 ± 1.1 µM; against SaOatA [4], more than 3000 µM; against NgPatB [5] it was more than 3000 µM; on NgPatB [2] it was 530 ± 70 µM.
As for `O=c1ccc2cc(O[C@@H]3O[C@H](CO)[C@@H](O)[C@H](O)[C@H]3O)c(O)cc2o1` [Esculin], the IC50 was 75.8 ± 1 µM on SaOatA [3] (setting [10]), 1350 ± 150 µM against SaOatA [4], 923 ± 9 µM at NgPatB [5] and 49.7 ± 3 µM against NgPatB [2]. In addition, the results for the remaining activity at 10 µM at SaOatA [1] (read-out: SaOatA 4MU-Ac 1° Screen (% RA)) and on NgPatB [2] (read-out: NgPatB 4MU-Ac 1° Screen (% RA)) were 47.8% and 38.4%, respectively. This compound came in with a solubility in [6] of 2050 µg/mL (≈ 6020 µM).
For `O=C1c2ccccc2C(=O)c2c(O)c(O)cc(O)c21` [purpurin, 1,2,4-trihydroxy-anthraquinone, reference compound], the IC50 at SaOatA [3] (read-out: IC50 for SaOatA, earlier preliminary characterization) is approximately 1100 µM. Further, on SaOatA [9], the “Identified in pilot HTS as inhibitor of SaOatA” value is “not identified”. For the same compound, the “Identified in pilot HTS as inhibitor of NgPatB” value on NgPatB [2] (pilot HTS, 10 µM) is recorded as “not identified”.
With `Cc1cc(=O)oc2cc(O)c(O)cc12` [4-Me-esculetin], the activity at 10 µM is 98.3% at SaOatA [1] and 92% on NgPatB [2].
For the compound `CCCCn1c(C)c2c(=O)n(-c3nc4ccccc4s3)[nH]c2cc1=O` [Compound 89224], the figures for the “Effect on growth of E. coli” value in the data set on E. coli BL21 and in the data set on E. coli BL21 (setting [11]) were “did not affect the growth; also recorded: not affected” and “unaffected”, respectively. Besides, the activity at 10 µM at SaOatA [1] was 99.8%; at NgPatB [2], 78.8%. In addition, in the data set on N. gonorrhoeae FA1090 (177 µg/mL, OD 600 nm vs control lacking compound), the “Reduction in growth of N. gonorrhoeae” value was found to be 90%. Inhibition against NgPatB [2] was half-maximal at 22.1 ± 1.2 µM (IC50). Also, at NgPatB [2], the Ki worked out at 126 ± 19 µM. Besides, the “Mode of inhibition of NgPatB” value is “mixed/non-competitive inhibitor” on NgPatB [2] and “non-competitive inhibitor” on NgPatB [2] (setting [11]). The solubility in data set [6] was approximately 177 µg/mL (≈ 499 µM).
For the compound `O=c1ccc2ccccc2o1` [Coumarin, 1,2-benzopyrone], the figures for the activity at 10 µM at SaOatA [1] and at NgPatB [2] were 106% and 82.5%, respectively.
